Results reported in patent publication EP0523873A1, “Non-substrate peptide inhibitors of farnesyl protein transferase” (MERCK & CO. INC., priority 1991, dated 1993).
Read-outs that look alike come from different tables or passages of the source. Square brackets hold non-standard residues; d marks the D form. Peptide text beside a SMILES is read from it. Phe(4-F) = N[C@@H](Cc1ccc(F)cc1)C(=O)O

Tests used:
[1] = target: farnesyl-protein transferase (bovine brain) (Bos taurus, UniProt P29702+P49355); conditions: read-out: KM for FPP; 30°C, 50 mM HEPES, pH 7.5, 5 mM MgCl2, 5 mM dithiothreitol
Procedure: (§1) Polyisoprenylation of Ras- [³H]Farnesyldiphosphate (FPP) (20 Ci/mmol) was purchased from New England Nuclear. Farnesyl-protein transferase activity assays were carried out as 30°C unless noted otherwise. […] After thermally pre-equilibrating the assay mixture in the absence of enzyme, reactions were initiated by the addition of farnesyl-protein transferase and stopped at timed intervals by the addition of 1 M HCl in ethanol (1 mL). The quenched reactions were allowed to stand for 15 minutes (to complete the precipitation process). After adding 2 mL of 100% ethanol, the reactions were vacuum-filtered through Whatman GF/C filters. Filters were washed four times with 2 mL aliquots of 100% ethanol, mixed with scintillation fluid (10 mL) and then counted in a Beckman LS3801 scintillation counter.
(§2) For inhibition studies, assays were run as described above, except putative inhibitors were added at the concentrations indicated. IC₅₀ values were determined with both farnesyl-protein transferase substrates at their KM concentrations.
Farnesyl-protein transferase was prepared from bovine brain. All purification steps were performed at 4°C. Cerebral lobes from bovine brains were homogenized in lysis buffer containing 50 mM. Tris-Cl, pH 8.0, 1 mM EGTA, 1 mM MgCl₂, 5 mM dithiothreitol, 10 µg/mL aprotinin, 0.5 mM phenylmethyl sulfonyl fluoride (PMSF), 2 µg/mL anitpain and 2 µg/mL leupeptin. […]

[2] = target: T1, Farnesyl-protein transferase from bovine brain (partially purified) (Bos taurus, UniProt P29702+P49355); experiment: Inhibition of Ras farnesylation in vitro by tetrapeptides; assay type: biochemical
T1 construct: Farnesyl-protein transferase was prepared from bovine brain; from tissue; host or cells: bovine brain (cerebral lobes); Ras substrate expressed in E. coli
Procedure: as §1, §2
Farnesyl-protein transferase was prepared from bovine brain. All purification steps were performed at 4°C. Cerebral lobes from bovine brains were homogenized in lysis buffer containing 50 mM. Tris-Cl, pH 8.0, 1 mM EGTA, 1 mM MgCl₂, 5 mM dithiothreitol, 10 µg/mL aprotinin, 0.5 mM phenylmethyl sulfonyl fluoride (PMSF), 2 µg/mL anitpain and 2 µg/mL leupeptin. Cellular debris and membranes were removed by centrifugation (10,000 g for 20 minutes followed by 100,000 g for 30 minutes). The supernatant was loaded directly onto a column (30 cm x 20 cm²) [formula] of DEAE-Sephacel that had been equilibrated with lysis buffer. The column was washed with the same buffer and proteins were eluted with a linear gradient of NaCL (0-500 mM, 1 L + 1 L) [formula] in the same buffer. Fractions (20 mL) were collected and those containing farnesyl-protein transferase activity were pooled. Each pool was then applied to an ω-Aminooctyl agarose column (30 cm x 4.9 cm²) [formula] and eluted with a linear gradient of NaCl (0-500 mM, 500 mL + 500 mL) [formula] in lysis buffer. Fractions containing farnesylprotein transferase were pooled. For most assays further partial purifiation was achieved by HPLC using a Mono Q H.R. 10/10 column and eluting farnesyl-protein transferase activity with a 0-0.3 M NaCl gradient over 85 minutes at 2 ml/min.
Farnesyl-protein transferase from bovine brain was chromatographed on DEAE-Sephacel (Pharmacia, 0-0.8 M NaCl gradient elution), N-octyl agarose (Sigma, 0-0.6 M NaCl gradient elution), and a Mono Q HPLC column (Pharmacia, 0.0.3M NaCl gradient). […] Data presented in the Table 2 are the average of 2-5 determinations. Single capital letter amino acid abbreviations are used above.

[3] = system: partially pure bovine brain farnesyl-protein transferase; experiment: Tetrapeptides tested as farnesylation substrates with [3H]FPP (TLC / autoradiography); assay type: biochemical; conditions: peptide 200 µM, 0.5 µM [3H]-FPP, 30 minutes at 30°C
Excerpt: (§3) When a peptide was used as the acceptor substrate, there were two changes to the assay: (1) Ras protein was excluded and, (2) the reactions were stopped by the addition of one tenth volume of 0.5 M EDTA. A portion of the reaction mixture was spotted onto a TLC plate (silica gel 60 thin layer chromatography plates (20 cm x 20 cm, 0.25 mm layer thickness) [formula] were from E. Merck (Darrnstadt)) and eluted with either ethyl acetate:pyridine:acetic acid:water (10:5:1:3) or n-propanol:water (7:3) elution systems. After drying under vacuum, the plates were sprayed with En³Hance and exposed to X-ray film at -70°C.
CAAX tetrapeptides and other tetrapeptides including Cys-Xaa¹-Xaa²-Xaa³ were tested as farnesylation substrates using [³H]FPP and partially pure bovine brain farnesyl-protein transferase.
The indicated peptides at 200 µM were incubated with partially pure bovine farnesyl-protein transferase and 0.5 µM [3H]-FPP for 30 minutes at 30°C. Autoradiographic exposure time was overnight (15-20 hours).

[4] = system: farnesyl-protein transferase; experiment: Tetrapeptides tested as farnesylation substrates ([3H]FPP, TLC and autoradiography); assay type: biochemical; conditions: [³H]FPP, partially pure bovine brain farnesyl-protein transferase, TLC, autoradiography
Excerpt: as §3
CAAX tetrapeptides and other tetrapeptides including Cys-Xaa¹-Xaa²-Xaa³ were tested as farnesylation substrates using [³H]FPP and partially pure bovine brain farnesyl-protein transferase. […] Thin layer chromatography (TLC) conditions were developed which resolved the substrates farnesyl diphosphate (Rf = 0.06) [formula] and CVLS (Rf = 0.28) [formula] and product S-farnesyl-CVLS (Rf = 0.58) [formula] . These Rf values reflect TLC conditions using ethylacetate: pyridine:acetic acid:water (10:5:1:3) as the elutent. […] Control peptides having a Cys to Ser substitution were not substrates. […]

[5] = system: farnesyl-protein transferase; experiment: Mechanism of inhibition using homogenous, pure farnesyl-protein transferase; assay type: biochemical, bovine
Procedure: To prepare pure enzyme, the […], […], was covalently bound to Affigel-10 under anhydrous conditions as described by the manufacture (15 µmol peptide per 1 mL of Affigel-10). Unreacted resin was treated with ethanolamine. After multiple passes of ω-aminooctyl-agarose-column-purified protein over the peptide column, the column was washed and eluted as described by Reiss, et al., (1990) ibid, to recover farnesyl-protein transferase activity.
To further verify that Cys-Xaa¹-Xaa²-Xaa³ were interacting with the active site of farnesyl-protein transfer, CIFM (SEQ ID NO: 2) was evaluated for its mechanism of inhibition using homogenous, pure farnesyl-protein transferase.

[6] = system: farnesyl-protein transferase; conditions: earlier findings (Schaber et al., ibid); cited from earlier work
[7] = Ras-CVLS at 3.5 µM, 0.25 µM [3H]FPP (both substrates at KM), average of 2-5 determinations, read-out: IC50

CC(C)=CCC/C(C)=C/CC/C(C)=C/CO[P@@](=O)(O)OP(=O)(O)O (stereo in doubt) [FPP, farnesyl diphosphate] showed a Km [1] of 0.25 µM.
With CC[C@H](C)[C@H](NC(=O)[C@H](C)NC(=O)[C@@H](N)CS)C(=O)N[C@@H](CCSC)C(=O)O [CAIM] (H-CAIM-OH) the IC50 [2, 7] was 200 nM and the “Farnesylation Substrate” value [3] was “+ (+ > 90% [3H] farnesyl diphosphate converted to [3H] farnesyl tetrapeptide)”.
With CC[C@H](C)[C@H](NC(=O)[C@H](C)NC(=O)[C@@H](N)CS)C(=O)N[C@@H](CO)C(=O)O [CAIS] (H-CAIS-OH) the IC50 [2, 7] was 1000 nM and the “Farnesylation Substrate” value [3] was “+ (+ > 90% [3H] farnesyl diphosphate converted to [3H] farnesyl tetrapeptide)”.
With CC[C@H](C)[C@H](NC(=O)[C@@H](N)CS)C(=O)N[C@@H](Cc1ccc(F)cc1)C(=O)N[C@@H](CCSC)C(=O)O [CI(p-fluoro-F)M] (H-CI[Phe(4-F)]M-OH) the IC50 [2, 7] was 10 nM and the “Farnesylation Substrate” value [3] was “- (- < 1% conversion)”.
With CC[C@H](C)[C@H](NC(=O)[C@@H](N)CS)C(=O)N[C@@H](Cc1ccccc1)C(=O)N[C@@H](CCSC)C(=O)O [CIFM, Cys-Ile-Phe-Met] (H-CIFM-OH) the IC50 [2, 7] was 10 nM, the farnesylation substrate activity [4] was “do not serve as effective substrates” and the “Farnesylation Substrate” value [3] was “- (- < 1% conversion)”. For the same molecule, the “mechanism of inhibition with respect to Ras protein substrate” value [5] was “competitive inhibitor” and the “mechanism of inhibition with respect to farnesyl diphosphate” value [5] was “not a competitive inhibitor”.
In the case of CC[C@H](C)[C@H](NC(=O)[C@@H](N)CS)C(=O)N[C@@H](Cc1ccccc1)C(=O)N[C@@H](CCC(N)=O)C(=O)O [CIFQ, Cys-Ile-Phe-Gln] (H-CIFQ-OH), the IC50 [2, 7] is reported as 23 nM and the “Farnesylation Substrate” value [3] is reported as “- (- < 1% conversion)”.
For CSCC[C@H](NC(=O)[C@H](Cc1ccccc1)NC(=O)[C@@H](NC(=O)[C@@H](N)CS)C(C)C)C(=O)O [CVFM, Cys-Val-Phe-Met], the “Farnesylation Substrate” value [3] was “- (- < 1% conversion)”.
With CC[C@H](C)[C@H](NC(=O)[C@@H](NC(=O)[C@@H](N)CS)C(C)C)C(=O)N[C@@H](CCSC)C(=O)O [CVIM] (H-CVIM-OH) the IC50 [2] was 100 nM and the “Farnesylation Substrate” value [3] was “+ (+ > 90% [3H] farnesyl diphosphate converted to [3H] farnesyl tetrapeptide)”.
In the case of CC[C@H](C)[C@H](NC(=O)[C@H](Cc1ccc(O)cc1)NC(=O)[C@@H](N)CS)C(=O)N[C@@H](CCSC)C(=O)O [CYIM] (H-CYIM-OH), the IC50 [2, 7] is reported as 100 nM and the “Farnesylation Substrate” value [3] is reported as “+ (+ > 90% [3H] farnesyl diphosphate converted to [3H] farnesyl tetrapeptide)”.
For CC(C)C[C@H](NC(=O)[C@@H](NC(=O)[C@@H](N)CO)C(C)C)C(=O)N[C@@H](CO)C(=O)O [SVLS] (H-SVLS-OH), the “Farnesylation Substrate” value [3] was “- (- < 1% conversion)”.
In the case of “SSGCVLS [heptapeptide SSGCVLS, earlier found to serve as a substrate for isoprenylation]”, the substrate for isoprenylation [6] is given as “served as a substrate for isoprenylation”.
